Results reported in PubChem BioAssay (NCI).
“And” between values parts separate entries of the source, which are not always exact repeats. Identical values can stand only once.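 Cultured in 96-well plates, cells were exposed to test compound for 48 hours across five concentrations. At the GI50, growth is halved. TGI marks complete inhibition of growth.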

Assays:
Assay in all cases: inhibition of tumour cell growth, NCI panel, 48 h
NCI/ADR-RES ovarian = system: NCI/ADR-RES ovarian
UACC-62 melanoma = system: UACC-62 melanoma
MOLT-4 leukemia = system: MOLT-4 leukemia
U251 CNS = system: U251 CNS
T-47D breast = system: T-47D breast
MDA-MB-435 = system: MDA-MB-435
HCC-2998 colon = system: HCC-2998 colon
SK-OV-3 ovarian = system: SK-OV-3 ovarian

## CC[C@@]1(O)C(=O)OCc2c1cc1n(c2=O)Cc2cc3c(Cl)c4c(cc3nc2-1)OCO4
NCI/ADR-RES ovarian
  GI50: < 0.001 µM
UACC-62 melanoma
  GI50: < 0.001 µM
  TGI: 0.337 µM and 0.544 µM
MOLT-4 leukemia
  GI50: < 0.001 µM
U251 CNS
  GI50: < 0.001 µM
T-47D breast
  GI50: < 0.001 µM
  TGI: > 100 µM
MDA-MB-435
  GI50: 0.0193 µM and 0.0229 µM
  TGI: > 100 µM
HCC-2998 colon
  GI50: 0.149 µM and 0.235 µM
  TGI: 6.42 µM
SK-OV-3 ovarian
  GI50: 0.00265 µM and 0.0176 µM

## COC(=O)c1c2c(c(C)[n+]([O-])c1C)C(=O)C=C(NCc1ccc(Br)cc1)C2=O
NCI/ADR-RES ovarian
  GI50: 0.332 µM
  TGI: 3.31 µM
UACC-62 melanoma
  GI50: 0.0438 µM
  TGI: 1.09 µM
MOLT-4 leukemia
  GI50: 0.87 µM
  TGI: 3.99 µM
U251 CNS
  GI50: 0.778 µM
  TGI: 2.46 µM
T-47D breast
  GI50: 0.141 µM
  TGI: 2.09 µM
MDA-MB-435
  GI50: 0.095 µM
  TGI: 0.243 µM
HCC-2998 colon
  GI50: 0.491 µM
  TGI: 1.9 µM
SK-OV-3 ovarian
  GI50: 1.52 µM
  TGI: 3.41 µM

## CC(=O)Nc1cc(C(c2ccccc2)c2ccccc2)cc(C(c2ccccc2)c2ccccc2)c1C
NCI/ADR-RES ovarian
  GI50: 6.01 µM
  TGI: > 100 µM
UACC-62 melanoma
  GI50: 5.86 µM
  TGI: > 100 µM
U251 CNS
  GI50: 7.63 µM
  TGI: > 100 µM
T-47D breast
  GI50: 3.18 µM
  TGI: > 100 µM
MDA-MB-435
  GI50: 6.81 µM
  TGI: > 100 µM
HCC-2998 colon
  GI50: 14.7 µM
  TGI: > 100 µM
SK-OV-3 ovarian
  GI50: > 100 µM
  TGI: > 100 µM

## Cc1ccc(-c2c3c(N)nc(-c4ccncc4)nc3nc3c2c(C)nn3-c2ccccc2)cc1
NCI/ADR-RES ovarian
  GI50: 7.5 µM
  TGI: > 37.5 µM
UACC-62 melanoma
  GI50: 13.8 µM
  TGI: > 37.5 µM
MOLT-4 leukemia
  GI50: > 37.5 µM
  TGI: > 37.5 µM
U251 CNS
  GI50: 6.12 µM
  TGI: 31.7 µM
T-47D breast
  GI50: 1.84 µM
  TGI: > 37.5 µM
MDA-MB-435
  GI50: 12.6 µM
  TGI: > 37.5 µM
HCC-2998 colon
  GI50: > 37.5 µM
  TGI: > 37.5 µM
SK-OV-3 ovarian
  GI50: 3.41 µM
  TGI: 10.2 µM

## Cc1ccc2c(n1)C(=O)C(Cl)=C(Nc1ccc(N3CCN(C)CC3)cc1)C2=O
NCI/ADR-RES ovarian
  GI50: 3.09 µM
  TGI: 9.45 µM
UACC-62 melanoma
  GI50: 1.71 µM
  TGI: 3.12 µM
MOLT-4 leukemia
  GI50: 2.37 µM
  TGI: 5.78 µM
U251 CNS
  GI50: 1.79 µM
  TGI: 3.19 µM
MDA-MB-435
  GI50: 1.88 µM
  TGI: 3.46 µM
HCC-2998 colon
  GI50: 4.54 µM
  TGI: 17.5 µM
SK-OV-3 ovarian
  GI50: 13 µM
  TGI: 25.8 µM

## Cc1cc(C(=O)N2CCN(C)CC2)c2c(=O)n(-c3ccccc3)c(=O)n(CC(O)CN3CCN(c4ncccn4)CC3)c2n1 (centres undefined)
NCI/ADR-RES ovarian
  GI50: > 100 µM
  TGI: > 100 µM
UACC-62 melanoma
  GI50: > 100 µM
  TGI: > 100 µM
MOLT-4 leukemia
  GI50: > 100 µM
  TGI: > 100 µM
U251 CNS
  GI50: > 100 µM
  TGI: > 100 µM
T-47D breast
  GI50: > 100 µM
  TGI: > 100 µM
MDA-MB-435
  GI50: > 100 µM
  TGI: > 100 µM
HCC-2998 colon
  GI50: > 100 µM
  TGI: > 100 µM
SK-OV-3 ovarian
  GI50: > 100 µM
  TGI: > 100 µM

## c1cc2ccc3cc2cc1CNCCOCCNCc1ccc2ccc(cc2c1)CNCCOCCNC3
NCI/ADR-RES ovarian
  GI50: > 100 µM
  TGI: > 100 µM
UACC-62 melanoma
  GI50: > 100 µM
  TGI: > 100 µM
MOLT-4 leukemia
  GI50: > 100 µM
  TGI: > 100 µM
U251 CNS
  GI50: > 100 µM
  TGI: > 100 µM
T-47D breast
  GI50: > 100 µM
  TGI: > 100 µM
MDA-MB-435
  GI50: > 100 µM
  TGI: > 100 µM
HCC-2998 colon
  GI50: > 100 µM
  TGI: > 100 µM
SK-OV-3 ovarian
  GI50: > 100 µM
  TGI: > 100 µM

## O=S1CCN(Cc2ccc(-c3ccc4ncnc(Nc5ccc(OCc6ccccc6)c(F)c5)c4c3)o2)CC1
NCI/ADR-RES ovarian
  GI50: 7.36 µM
  TGI: > 25 µM
UACC-62 melanoma
  GI50: 5.1 µM
  TGI: 16 µM
MOLT-4 leukemia
  GI50: 8.76 µM
  TGI: > 25 µM
U251 CNS
  GI50: 13.9 µM
  TGI: > 25 µM
T-47D breast
  GI50: 3.22 µM
  TGI: > 19.2 µM
MDA-MB-435
  GI50: 7.21 µM
  TGI: > 24.2 µM
HCC-2998 colon
  GI50: 9.93 µM
  TGI: > 25 µM
SK-OV-3 ovarian
  GI50: 0.0713 µM
  TGI: 0.226 µM

## COc1cc(C2CC(=O)c3c(C)nn(-c4nc5ccccc5[nH]4)c3C2)cc(OC)c1OC (centres undefined)
NCI/ADR-RES ovarian
  GI50: > 100 µM
  TGI: > 100 µM
UACC-62 melanoma
  GI50: 14.6 µM
  TGI: > 100 µM
MDA-MB-435
  GI50: > 100 µM
  TGI: > 100 µM
HCC-2998 colon
  GI50: > 100 µM
  TGI: > 100 µM
SK-OV-3 ovarian
  GI50: 4.12 µM
  TGI: > 100 µM

## Cc1ccc(C)c(NC(=O)/C(=N\N)C(c2cnc3ccc([N+](=O)[O-])cc3n2)[N+](=O)[O-])c1 (centres undefined)
NCI/ADR-RES ovarian
  TGI: > 100 µM
UACC-62 melanoma
  TGI: > 100 µM
MOLT-4 leukemia
  TGI: > 100 µM
U251 CNS
  TGI: > 100 µM
T-47D breast
  TGI: > 100 µM
MDA-MB-435
  TGI: > 100 µM
HCC-2998 colon
  TGI: > 100 µM
SK-OV-3 ovarian
  TGI: > 100 µM

## Cc1ccn2c(-c3csc(Nc4cccc(O)c4)n3)c(C)nc2c1
NCI/ADR-RES ovarian
  GI50: 0.957 µM
  TGI: > 45.1 µM
UACC-62 melanoma
  GI50: 0.712 µM
  TGI: 19.2 µM
MOLT-4 leukemia
  GI50: 0.591 µM
  TGI: 27.9 µM
U251 CNS
  GI50: 0.681 µM
  TGI: 10.3 µM
T-47D breast
  GI50: 0.878 µM
  TGI: 10.8 µM
MDA-MB-435
  GI50: 0.059 µM
  TGI: 0.281 µM
HCC-2998 colon
  GI50: 2.81 µM
  TGI: 17.4 µM
SK-OV-3 ovarian
  GI50: 1.04 µM
  TGI: 11.8 µM
